Measured values taken from PMC4912613, “A broad analysis of resistance development in the malaria parasite” (Nature Communications, 2016).
Where two headings read alike, the source gives them in different places.

Legend:
[1] = system: ATQ-R4 (cytb M133I and L144S, parent 3D7); assay: Cross-resistance EC50 assay, ATQ-R4; assay type: cell-based, Plasmodium falciparum; settings: for EC50: Plasmodium falciparum, 3D7, SYBR green 72 hour assay, asynchronized parasites, 96-well or 1536-well format, ATQ-R4; for EC50 fold-shift, ATQ-R4 vs parent: resistance, parent 3D7
From the text: (§1) To evaluate potential overlapping activity against known antimalarial drug targets, we performed dose-response studies with each compound against our assembled set of drug-resistant lines and their corresponding parents, in an asexual blood stage proliferation assay (Table 1). Comparisons were made to the drug-sensitive strain 3D7 when a parent was unavailable (TM90C2A, W2 and Dd2). As laboratories conducted EC50 assays with different strains and protocols, all comparisons were made between assays from the same laboratory and under the same assay conditions. Compounds displaying >5-fold EC50 shifts relative to the parent or sensitive strain were flagged as having potentially non-novel targets. Average fold shifts per strain ranged from 0.82 to 2.34, with a median of 1.23 indicating there was not common resistance to any one resistant clone. No resistance patterns were observed when classifying the compounds based on chemical structure, but this was not surprising given the diversity of compounds chosen. On the other hand, given that these confirmed compounds were derived from larger unconfirmed hit lists to which some filtration criteria may have been applied (for example, elimination of obvious dihydrofolate reductase inhibitors[32]), some[10][11][12][13] pre-existing bias may exist in the set. […]
(§2) Alternatively, a SYBR Green-based proliferation approach was used for the 72-h assay, as previously described. Briefly, a culture of either synchronized or asynchronous parasitized RBCs (0.3% parasitemia and 4% haematocrit) in screening medium (identical to supplemented medium above except no serum was added) was exposed to serial drug dilutions. Plates were incubated at 37 °C and gassed with 93% N2, 4% CO2 and 3% O2 for 72 h. Following incubation, 10 × SYBR Green I (Invitrogen; supplied in 10,000 × concentration) in lysis buffer ([…], 5 mM EDTA, 0.16% Saponin wt per vol and 1.6% Triton X vol per vol) was added to the wells and the plates were incubated overnight at room temperature before plate reading. EC50 assays were repeated three times, taking the average EC50 value from each assay set, and removing any outliers using a single iteration of Grubbs' test, eliminating values with z-scores above the critical z-value (α=0.05). The raw EC50 values for synchronized parasites assayed in a 384-well format are listed in Supplementary Data 4. The raw EC50 values for asynchronous parasites assayed in a 96 or 1536-well format are listed in Supplementary Data 5.
(§3) EC50 values for each strain were compared with those of the corresponding parent strain to determine fold-shift changes and identify resistance. To minimize the cause variance between assays, all comparisons were conducted between strains assayed under identical conditions. A one-way ANOVA followed by a Dunnet's post-test was conducted in GraphPad Prism to identify significant changes between the parent and resistant strain.

[2] = system: 3D7; assay: Cross-resistance EC50 assay, 3D7 parent / sensitive strain; assay type: cell-based; settings: Plasmodium falciparum
From the text: Multidrug resistance alleles, including mutations in P. falciparum chloroquine resistance transporter (pfcrt) and P. falciparum multi-drug resistance transporter 1 (pfmdr1) are very common in field isolates. Therefore, we sought to assess the degree to which pre-existing resistance alleles would contribute to a loss of potency for this diverse collection of small molecule compounds. Fifteen clones derived from three main parent lines were chosen to maximize diversity in mutated pathways and genetic backgrounds, thus representing the variety of resistance seen in the field: 3D7 (ref. [23]), W2 (ref. [24]) or Dd2 (ref. [25]). The 3D7 line originates from the clone of a Netherlands clinical isolate strain[23][26] and is generally considered to be drug sensitive, though it does convey resistance to sulfadoxine. Conversely, W2 (ref. [24], [27]) and Dd2 (ref. [25]) are multi-drug-resistant lines originating from the Indochina III/CDC isolate, which contain point mutations in pfcrt as well as amplifications in pfmdr1 and GTP cyclohydrolase.
To evaluate potential overlapping activity against known antimalarial drug targets, we performed dose-response studies with each compound against our assembled set of drug-resistant lines and their corresponding parents, in an asexual blood stage proliferation assay (Table 1). Comparisons were made to the drug-sensitive strain 3D7 when a parent was unavailable (TM90C2A, W2 and Dd2). As laboratories conducted EC50 assays with different strains and protocols, all comparisons were made between assays from the same laboratory and under the same assay conditions. Compounds displaying >5-fold EC50 shifts relative to the parent or sensitive strain were flagged as having potentially non-novel targets. Average fold shifts per strain ranged from 0.82 to 2.34, with a median of 1.23 indicating there was not common resistance to any one resistant clone. No resistance patterns were observed when classifying the compounds based on chemical structure, but this was not surprising given the diversity of compounds chosen. On the other hand, given that these confirmed compounds were derived from larger unconfirmed hit lists to which some filtration criteria may have been applied (for example, elimination of obvious dihydrofolate reductase inhibitors[32]), some[10][11][12][13] pre-existing bias may exist in the set.
The 48-h assay was carried out in a 96-well format following standard methods using the ^3H-hypoxanthine incorporation assay. The raw EC50 values corresponding to this assay can be found in Supplementary Data 3. Briefly, this assay relies on the parasite incorporation of labelled hypoxanthine that is proportional to P. falciparum growth. A culture of parasitized RBCs (0.5% parasitemia with a percentage of ring stage higher than 70% of total parasitemia, 2.0% haematocrit) in RPMI-1640, […] and 5 μM hypoxanthine was exposed to drug serial dilutions. Plates were incubated for 24 h at 37 °C, 5% CO2, 5% O2 and 90% N2. After 24 h of incubation, ^3H-hypoxanthine was added and plates were incubated for an additional 24-h period. After that, parasites were harvested on a glass fibre filter using a TOMTEC Cell Harvester 96. Filters were dried and melt-on scintillator sheets were used to determine the incorporation of ^3H-hypoxanthine. Radioactivity was measured using a microbeta counter. Data were normalized using the incorporation of the positive (parasitized RBCs without drug) and negative (same culture with artesunate at 2 μM) controls. All assays were conducted in triplicate using three independently grown cultures, and EC50 values were determined using the XLfit add-in module for Excel (version 2.3.1) from Grafit (version 5.3.1.3), where parameter h is the assay hill slope, x is the compound concentration and y is the inhibition of growth effect. The XLfit equation is: […]
Alternatively, a SYBR Green-based proliferation approach was used for the 72-h assay, as previously described. […]

[3] = system: NITD609-R2 (PfATP4 T418N and P990R, parent Dd2); assay: Cross-resistance EC50 assay, NITD609-R2; assay type: cell-based; settings: Plasmodium falciparum, SYBR green 72 hour assay, asynchronized parasites, 96-well or 1536-well format
From the text: as §1, §2, §3

[4] = SYBR green 72 hour assay, asynchronized parasites, 96-well or 1536-well format, 3D7 parent, read-out: 3D7 (PARENT) EC50 (µM) Average EC50
[5] = SYBR green 72 hour assay, synchronized parasites, 384-well format, strain 3D7 (parent), read-out: 3D7 (PARENT) Average EC50
[6] = hypoxanthine 48-hour assay, synchronized parasites, 96-well format, strain 3D7 (parent), read-out: 3D7 (PARENT) Average EC50
[7] = hypoxanthine 48-hour assay, synchronized parasites, 96-well format, strain 3D7-C9-WT (parent of PfATP4 Mut3), read-out: 3D7-C9-WT (PARENT) Average EC50

Row | Structure (SMILES) | EC50 [1] [µM] | EC50 fold-shift, ATQ-R4 vs parent [1] | EC50 [2, 4] [µM] | EC50 [2, 5] [µM] | EC50 [2, 6] [µM] | EC50 [2, 7] [µM] | EC50 [3] [µM] | EC50 ([2]; 3D7, 48 h, read-out: 3D7 (PARENT) Average EC50) [µM] | EC50 ([2]; 3D7, 48 h, read-out: 3D7-C9-WT (PARENT) Average EC50) [µM] | EC50 ([2]; 3D7, 72 h, read-out: 3D7 (PARENT) Average EC50) [µM] | EC50 ([2]; 3D7, 72 h, read-out: 3D7 (PARENT) EC50 (µM) Average EC50) [µM]
1 | Cc1c(C)n(Cc2ccc(F)cc2)c2ccc(C(=O)NCc3ccco3)cc12 [MMV008149] | 3.88 | Statistically significant resistance | 1.06 | 0.357 | 0.773 | 2.74 | 0.934 |  |  |  | 
2 | OC(CNC1CCCCC1)Cn1c2ccccc2c2ccccc21 (centres unmarked) [MMV009063] | 0.668 |  | 0.281 | 0.464 | 0.785 |  | 0.411 |  |  |  | 
3 | CCN(CC)S(=O)(=O)c1ccc(-c2csc(Nc3ccc(C)c(C)c3)n2)cc1 [MMV009108] | 2.44 |  | 0.851 | 0.759 | 0.93 | 1.11 | 0.574 |  |  |  | 
4 | COC(=O)c1ccc(C2C3=C(O)CC(c4ccc(F)cc4)CC3=Nc3ccccc3N2C(=O)c2ccccc2)cc1 (centres unmarked) [MMV011438] | 0.379 |  | 0.187 | 0.229 | 0.428 | 0.513 | 0.306 |  |  |  | 
5 | Nc1ccc(-c2nc3cc(Oc4ccc(Oc5ccc6[nH]c(-c7ccc(N)cc7)nc6c5)cc4)ccc3[nH]2)cc1 [MMV011895] | 0.545 |  | 0.24 | 0.169 | 0.158 |  | 0.56 |  |  |  | 
6 | COCCNCC(O)Cn1c2ccc(Cl)cc2c2cc(Cl)ccc21 (centres unmarked) [MMV019017] | 1.24 |  | 0.537 | 0.763 | 0.62 |  | 0.456 |  |  |  | 
7 | COc1ccccc1CNC(=O)CCn1c(=O)[nH]c2ccsc2c1=O [MMV019066] | 0.057 | 16 × | 0.007 | 0.168 | 1.67 | 2.17 | 0.014 |  |  |  | 
8 | Cl.c1ccc2c(NCCCCCCNc3c4c(nc5ccccc35)CCCC4)c3c(nc2c1)CCCC3 [MMV019555] | 0.08 |  |  |  |  |  | 0.188 | 0.087 | 0.094 | 0.062 | 0.065
9 | COc1ccc(N2CCN(C(CNC(=O)C3CCCCC3)c3ccc4c(c3)OCO4)CC2)cc1 (centres unmarked) [MMV019662] | 0.716 |  | 0.358 | 0.98 | 0.34 | 0.81 | 0.512 |  |  |  | 
10 | COc1ccc(-c2nc(NC(=O)Cc3ccc4c(c3)OCCO4)sc2C)cc1 [MMV019719] | 0.203 |  | 0.236 | 0.2 | 0.165 | 0.132 | 0.328 |  |  |  | 
11 | Cc1ccc(Oc2ncccc2C(=O)Cc2cccc3cccnc23)c(C)c1 [MMV020746] | 1.97 |  | 0.993 | 0.096 | 0.074 | 0.093 | 2.14 |  |  |  | 
